Type in all cases: cell-based
Holding throughout (design): expressed in transfected cells; host or cells: Fisher rat thyroid (FRT) cells, co-expressing halide sensor YFP-H148Q/I152L; provided by Dr. Alan Verkman

The target of assay [1] is T1, ΔF508-CFTR (Homo sapiens, UniProt P13569, DEL508-508). The experiment in a line: Whole-cell patch-clamp in FRT cells expressing ΔF508-CFTR. As to the method:
Whole-cell patch-clamp recordings were performed on WT- or ΔF508-CFTR-expressing FRT cells. The bath solution contained (in mM): 140 NMDG-Cl, 1 CaCl2, 1 MgCl2, 10 glucose and 10 HEPES (pH 7.4). The pipette solution contained (in mM): 130 CsCl, 0.5 EGTA, 1 MgCl2, 1 Tris-ATP, and 10 HEPES (pH 7.2). Pipettes were pulled from borosilicate glass and had resistances of 3–5 MΩ after fire polishing. Seal resistances were between 3 and 10 GΩ. After establishing the whole-cell configuration, CFTR was activated by forskolin and/or CP7q. Whole-cell currents were elicited by applying hyperpolarizing and depolarizing voltage pulses from a holding potential of 0 mV to potentials between -80 mV and +80 mV in steps of 20 mV. Recordings were made at room temperature using an Axopatch-200B (Axon Instruments). Currents were digitized and analyzed using a Digidata 1440A converter (Axon Instruments), and pCLAMP 10.2 software (Molecular Devices, Sunnyvale, CA). Currents were low-pass filtered at 1 kHz and sampled at 5 kHz
Background: In patch-clamp work, channel activity is measured electrically.

In assay [2] the target is T1, ΔF508-CFTR. As to the kind of experiment: YFP quenching assay of VX-809-mediated rescue in A549 cells expressing ΔF508-CFTR. The following applies: 48 h, combined with 5 μM VX-809, 10 μM CP7q or 5 μM VX-770, vs VX-809 alone. As to the method: Fisher rat thyroid (FRT) cells expressing human wild type-, ΔF508- and G551D-CFTR with a halide sensor YFP-H148Q/I152L were generously provided by Dr. Alan Verkman (University of California, San Francisco) and grown in F-12 Modified Coon´s medium supplemented with 10% FBS, 2 mM glutamine, 100 units/ml penicillin and 100 μg/ml streptomycin [30]. A549 cells were obtained from Korean Cell Line Bank (Seoul, Korea) and the cells were stably transfected with human ΔF508-CFTR and the halide sensor YFP-H148Q/I152L/F46L, and maintained in RPMI-1640 medium containing 10% fetal bovine serum (FBS), 100 units/ml penicillin and 100 μg/ml streptomycin. […]
FRT cells expressing wild type- or ΔF508-CFTR with the halide sensor YFP-H148Q/I152L were plated in 96-well black-walled microplates (Corning Inc., Corning, NY) at a density of 2 x10^4cells per well. […] Assays were done using FLUO star Omega microplate reader (BMG Labtech, Ortenberg, Germany) and MARS Data Analysis Software (BMG Labtech). […] After 10 min, 96-well plates were transferred to the microplate reader preheated to 37°C for fluorescence assay. Each well was assayed individually for CFTR-mediated I^- influx by recording fluorescence continuously (200 ms per point) for 2 s (baseline), then 100 μL of 140 mM I^- solution was added at 2 s and then YFP fluorescence was recorded for 14 s. […]

The target of assay [3] is T1, ΔF508-CFTR. The experiment in a line: Apical membrane current of VX-809-rescued ΔF508-CFTR in FRT cells. The following applies: 48 h, combined with 5 μM VX-809, 10 μM CP7q or 5 μM VX-770. As to the method:
Snapwell inserts containing CFTR-expressing FRT and primary culture of human nasal epithelial cells were mounted in Ussing chambers (Physiologic Instruments, San Diego, CA). Forskolin, genistein, CP7q and CFTRinh-172 were added to the apical and basolateral bath solution. For FRT cells, the apical bath was filled with a half-Cl^- solution and the basolateral bath was filled with HCO3^—buffered solution, and the basolateral membrane was permeabilized with 250 μg/mL amphotericin B. For primary cultures of human nasal epithelial cells, symmetrical HCO3^—buffered solutions were used and ENaC was inhibited by pre-treatment with amiloride (100 μM). All cells were bathed for a 20 min stabilization period and aerated with 95% O2 / 5% CO2 at 37°C. Apical membrane current and short-circuit current were measured with an EVC4000 Multi-Channel V/I Clamp (World Precision Instruments, Sarasota, FL) and recorded using PowerLab 4/35 (AD Instruments, Castle Hill, Australia). Data were collected and analyzed with ADInstruments acquisition software Labchart Pro 7 software. The sampling rate was 4 Hz.

T1 sequence (P13569 with tags, fused parts or gaps DEL508-508): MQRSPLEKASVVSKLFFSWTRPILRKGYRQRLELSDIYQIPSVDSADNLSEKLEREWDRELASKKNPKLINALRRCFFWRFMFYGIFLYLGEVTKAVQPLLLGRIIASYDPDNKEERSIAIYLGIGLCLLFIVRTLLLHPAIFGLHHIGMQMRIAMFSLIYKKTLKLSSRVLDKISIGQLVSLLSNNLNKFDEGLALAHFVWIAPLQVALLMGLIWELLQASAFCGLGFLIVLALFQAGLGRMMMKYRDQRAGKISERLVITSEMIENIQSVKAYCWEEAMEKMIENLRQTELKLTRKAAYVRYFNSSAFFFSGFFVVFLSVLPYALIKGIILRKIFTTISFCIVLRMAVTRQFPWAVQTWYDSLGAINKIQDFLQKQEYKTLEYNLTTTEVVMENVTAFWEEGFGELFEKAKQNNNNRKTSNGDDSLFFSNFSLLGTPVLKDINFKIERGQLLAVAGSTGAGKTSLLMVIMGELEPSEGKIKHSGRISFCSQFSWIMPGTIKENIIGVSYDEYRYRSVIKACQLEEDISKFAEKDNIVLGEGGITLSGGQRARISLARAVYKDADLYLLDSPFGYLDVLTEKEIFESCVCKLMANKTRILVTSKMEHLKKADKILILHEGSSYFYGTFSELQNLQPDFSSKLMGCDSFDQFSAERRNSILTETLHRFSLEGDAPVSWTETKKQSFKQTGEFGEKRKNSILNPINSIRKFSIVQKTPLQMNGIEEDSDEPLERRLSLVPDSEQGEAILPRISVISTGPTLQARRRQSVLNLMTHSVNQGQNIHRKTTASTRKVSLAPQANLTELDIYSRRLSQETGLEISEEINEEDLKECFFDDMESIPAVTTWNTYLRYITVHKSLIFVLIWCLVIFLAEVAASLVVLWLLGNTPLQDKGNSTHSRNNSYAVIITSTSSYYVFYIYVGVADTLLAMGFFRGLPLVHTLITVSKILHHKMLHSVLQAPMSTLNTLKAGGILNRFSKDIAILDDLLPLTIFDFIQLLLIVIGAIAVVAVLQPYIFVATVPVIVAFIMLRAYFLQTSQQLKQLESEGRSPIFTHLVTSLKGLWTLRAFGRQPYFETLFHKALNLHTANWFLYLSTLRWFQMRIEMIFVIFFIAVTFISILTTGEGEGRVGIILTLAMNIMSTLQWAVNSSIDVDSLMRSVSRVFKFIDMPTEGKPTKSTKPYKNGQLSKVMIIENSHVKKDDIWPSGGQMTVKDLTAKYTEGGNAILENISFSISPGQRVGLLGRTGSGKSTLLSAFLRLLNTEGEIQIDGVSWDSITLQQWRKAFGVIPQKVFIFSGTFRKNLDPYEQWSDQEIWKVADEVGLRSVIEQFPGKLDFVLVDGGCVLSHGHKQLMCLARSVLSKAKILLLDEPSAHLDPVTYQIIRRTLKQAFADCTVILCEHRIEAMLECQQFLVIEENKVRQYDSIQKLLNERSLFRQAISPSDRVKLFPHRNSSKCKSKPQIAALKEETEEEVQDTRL

Take `COc1ccc(C2CC(c3ccc(O)cc3O)=NN2c2ccc(S(N)(=O)=O)cc2)c(OC)c1` (stereo not shown) [Compound 7q, 4-[3-(2,4-dihydroxyphenyl)-5-(2,4-dimethoxyphenyl)-4,5-dihydro-1H-pyrazol-1-yl] benzenesulfonamide]: the “Potentiation of whole-cell ΔF508-CFTR Cl- current” value in assay [1] (10 μM forskolin, 10 μM CP7q, 27°C rescue) was “significantly potentiated”. In assay [1] (whole cell patch-clamp, no forskolin), the “Activation of ΔF508-CFTR without forskolin stimulation” value was “did not activate”. Besides, the “Effect on functional rescue of ΔF508-CFTR by VX-809 (iodide influx)” value in assay [2] is given as “significantly increased”. Further, the “Effect on apical membrane current of VX-809-rescued ΔF508-CFTR” value in assay [3] is listed as “strongly increased”.
